Assay results: patent publication US8962810B2, “Macrocyclic heterocyclic compound for inhibiting hepatitis C virus and preparation and use thereof” (AB Pharma Ltd., priority 2011, dated 2015)

Target: T1, HCV Protease (HCV NS3-4A) (Hepatitis C virus genotype 1a, UniProt P27958)
T1 construct: HCV Protease: HCV NS3-4A, self-prepared; made in house
Test: HCV Protease (HCV NS3-4A) anti-activity assay, fluorescence quenching (FRET)
Format: biochemical
Description: Method of HCV Protease (HCV NS3-4A) Anti-Activity Assay:
HCV Protease (HCV NS3/4A) anti-activity was measured by an inter fluorescence quenching system. EDANS group and DABCYL group were bonded on each side of a peptide. When protein cleavage started, fluorescence quenching of EDANS by DABCYL was detected. We used a high throughput screening model for HCV NS3/4A protease inhibitors, the tested drugs were prepared with 5 different concentrations, positive control and negative control were set in the same time. In the optimized reaction system, fluorescence were determined at ex=355, em=520 by a Polarstar fluorescence detector. Calculate the inhibition rate of each concentration; calculate the half maximal inhibitory concentration (IC50) with the method of Reed-Muench.
Materials: HCV Protease: HCV NS3-4A, self-prepared, stored at −70. HCV Protease substrate (FRET-S): Ac-Asp-Glu-Asp(EDANS)-Glu-Glu-Abu-ψ-[COO]-Ala-Ser-Lys-(DABCYL)-NH2, supplied by AnaSpec USA, prepared of 100 μM by DMSO, distributed and stored at −20 without light. Buffer solution: 30 mM NaCl, 5 mM CaCl2, 10 mM DTT, 50 mM Tris (pH7.8).
Instrument: fluorescence detector Polarstar from Germany Company BMG
Preparation and operation: preparation of 10 mg/mL by DMSO, dilute of 10000, 2000, 400, 80, 16 ng/mL as tested concentrations by buffer solutions, adding 20 μL into each well, the total reaction system is 200 μL, to make the final concentrations of 1000, 200, 40, 8, 1.6 ng/mL. Add 140 μL buffer solution, 20 μL drug solution, 20 μL HCV protease, and 20 μL FRET-S substrate with final concentration of 0.25 μM into 96-well fluorescence microtiterplate, the reaction started at 37, set control wells of protease-substrate reaction and of isolate substrate and isolate protease, fluorescence signals were detected by fluorescence detector (ex=355,em=520). Calculate the inhibition rates of samples for each concentration by comparison of fluorescence value of sample in each well and the fluorescence control value of enzyme, calculate the half maximal inhibitory concentration (IC50) of samples to HCV protease with the method of Reed-Muench.
THF and Et2O were distilled from sodium metal and benzophenone. DCM, pentane and hexane were distilled form calcium hydride. Special raw materials and intermediates in the invention were supplied by Zannan SciTech Co. for ordered processing, Ltd. in Shanghai, others reagents were purchased from Shanghai reagent company, Aldrich, Acros etc. If intermediates or products of synthesis were not enough for the next step of reaction, the synthesis shall be repeated until it is sufficient. The HCV protease (HCV NS3-4A) inhibitory activity assays in the present invention were performed by relevant cooperation service units of China Institutes for Biological Science in Beijing.

T1 sequence (P27958 1658-1711): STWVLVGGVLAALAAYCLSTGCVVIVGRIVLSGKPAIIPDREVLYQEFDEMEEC
T1 sequence (P27958 1027-1657): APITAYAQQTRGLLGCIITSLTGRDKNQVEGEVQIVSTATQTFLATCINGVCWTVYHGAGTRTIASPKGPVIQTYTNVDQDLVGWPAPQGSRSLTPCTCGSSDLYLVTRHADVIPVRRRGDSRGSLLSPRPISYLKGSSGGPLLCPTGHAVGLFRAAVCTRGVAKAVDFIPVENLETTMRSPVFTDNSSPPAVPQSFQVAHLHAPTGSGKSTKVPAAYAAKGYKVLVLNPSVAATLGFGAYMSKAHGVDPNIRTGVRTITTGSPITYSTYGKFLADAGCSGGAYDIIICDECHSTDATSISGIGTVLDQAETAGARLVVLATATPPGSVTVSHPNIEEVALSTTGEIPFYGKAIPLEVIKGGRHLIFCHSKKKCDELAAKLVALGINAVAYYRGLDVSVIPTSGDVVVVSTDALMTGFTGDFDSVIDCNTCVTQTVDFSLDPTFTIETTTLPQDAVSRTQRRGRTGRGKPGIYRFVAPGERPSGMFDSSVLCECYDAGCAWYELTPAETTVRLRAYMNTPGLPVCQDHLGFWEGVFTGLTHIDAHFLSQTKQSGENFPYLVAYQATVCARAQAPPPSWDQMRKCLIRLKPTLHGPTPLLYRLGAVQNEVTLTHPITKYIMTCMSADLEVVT

`CC[C@H]1C[C@@]1(NC(=O)C1C[C@@H]2CN1C(=O)[C@H](C(C)(C)C)NC(=O)OCC1(CCCCCOc3cccc4c3CN(C4)C(=O)O2)CC1)C(=O)NS(=O)(=O)C1CC1` (stereo partly shown) [Compound 15a] and `CC[C@H]1C[C@@]1(NC(=O)C1C[C@@H]2CN1C(=O)[C@H](C(C)(C)C)NC(=O)OCCCCCOc1cccc3c1CN(C3)C(=O)O2)C(=O)NS(=O)(=O)C1CC1` (stereo partly shown) [Compound 15ag] fall in the same range of IC50: 0.1 to 5 nM for the first, 0.1 to 5 nM for the second.

`C=CC1CC1(NC(=O)C1CC2CN1C(=O)C(C(C)(C)C)NC(=O)OCCCCCCOc1cccc3c1CN(C3)C(=O)O2)C(=O)NS(=O)(=O)C1CC1` (stereo not shown) [Compound 15aa] and `C=C[C@H]1C[C@@]1(NC(=O)C1C[C@@H]2CN1C(=O)[C@H](C(C)(C)C)NC(=O)OCCCCCCCOc1cccc3c1CN(C3)C(=O)O2)C(=O)NS(=O)(=O)C1CC1` (stereo partly shown) [Compound 15ab] fall in the same range of IC50: 0.1 to 5 nM for the first, 0.1 to 5 nM for the second.

`C=CC1CC1(NC(=O)C1CC2CN1C(=O)C(C(C)(C)C)NC(=O)OCCCCCCCCOc1cccc3c1CN(C3)C(=O)O2)C(=O)NS(=O)(=O)C1CC1` (stereo not shown) [Compound 15ac] and `C=C[C@H]1C[C@@]1(NC(=O)C1C[C@@H]2CN1C(=O)[C@H](C(C)(C)C)NC(=O)OCCCCCOc1cccc3c1CN(C3)C(=O)O2)C(=O)NS(=O)(=O)C1CC1` (stereo partly shown) [Compound 15af] fall in the same range of IC50: 0.1 to 5 nM for the first, 0.1 to 5 nM for the second.

`C=C[C@H]1C[C@@]1(NC(=O)C1C[C@@H]2CN1C(=O)[C@H](C(C)(C)C)NC(=O)OCC/C=C/COc1cccc3c1CN(C3)C(=O)O2)C(=O)NS(=O)(=O)C1CC1` (stereo partly shown) [Compound 15ad] and `C=C[C@H]1C[C@@]1(NC(=O)C1C[C@@H]2CN1C(=O)[C@H](C(C)(C)C)NC(=O)OCCC/C=C/CCOc1cccc3c1CN(C3)C(=O)O2)C(=O)NS(=O)(=O)C1CC1` (stereo partly shown) [Compound 15an] fall in the same range of IC50: 0.1 to 5 nM for the first, 0.1 to 5 nM for the second.

`CC[C@H]1C[C@@]1(NC(=O)C1C[C@@H]2CN1C(=O)[C@H](C(C)(C)C)NC(=O)OCC/C=C/COc1cccc3c1CN(C3)C(=O)O2)C(=O)NS(=O)(=O)C1CC1` (stereo partly shown) [Compound 15ae] and `CC[C@H]1C[C@@]1(NC(=O)C1C[C@@H]2CN1C(=O)[C@H](C(C)(C)C)NC(=O)OCCC/C=C/CCOc1cccc3c1CN(C3)C(=O)O2)C(=O)NS(=O)(=O)C1CC1` (stereo partly shown) [Compound 15ap] fall in the same range of IC50: 0.1 to 5 nM for the first, 0.1 to 5 nM for the second.

`C=C[C@H]1C[C@@]1(NC(=O)C1C[C@@H]2CN1C(=O)[C@H](C(C)(C)C)NC(=O)OCC(C)(C)OC/C=C/COc1cccc3c1CN(C3)C(=O)O2)C(=O)NS(=O)(=O)C1CC1` (stereo partly shown) [Compound 15ah] and `C=C[C@H]1C[C@@]1(NC(=O)C1C[C@@H]2CN1C(=O)[C@H](C(C)(C)C)NC(=O)OCC(C)(C)C/C=C/COc1cccc3c1CN(C3)C(=O)O2)C(=O)NS(=O)(=O)C1CC1` (stereo partly shown) [Compound 15aq] fall in the same range of IC50: 0.1 to 5 nM for the first, 0.1 to 5 nM for the second.

`CC[C@H]1C[C@@]1(NC(=O)C1C[C@@H]2CN1C(=O)[C@H](C(C)(C)C)NC(=O)OCC(C)(C)OC/C=C/COc1cccc3c1CN(C3)C(=O)O2)C(=O)NS(=O)(=O)C1CC1` (stereo partly shown) [Compound 15aj] and `CC[C@H]1C[C@@]1(NC(=O)C1C[C@@H]2CN1C(=O)[C@H](C(C)(C)C)NC(=O)OCC(C)(C)C/C=C/COc1cccc3c1CN(C3)C(=O)O2)C(=O)NS(=O)(=O)C1CC1` (stereo partly shown) [Compound 15ar] fall in the same range of IC50: 0.1 to 5 nM for the first, 0.1 to 5 nM for the second.

`C=C[C@H]1C[C@@]1(NC(=O)C1C[C@@H]2CN1C(=O)[C@H](C(C)(C)C)NC(=O)OCC(C)(C)OCCCCOc1cccc3c1CN(C3)C(=O)O2)C(=O)NS(=O)(=O)C1CC1` (stereo partly shown) [Compound 15ak] and `C=C[C@H]1C[C@@]1(NC(=O)C1C[C@@H]2CN1C(=O)[C@H](C(C)(C)C)NC(=O)OCC(C)(C)CCCCOc1cccc3c1CN(C3)C(=O)O2)C(=O)NS(=O)(=O)C1CC1` (stereo partly shown) [Compound 15as] fall in the same range of IC50: 0.1 to 5 nM for the first, 0.1 to 5 nM for the second.

`CC[C@H]1C[C@@]1(NC(=O)C1C[C@@H]2CN1C(=O)[C@H](C(C)(C)C)NC(=O)OCC(C)(C)OCCCCOc1cccc3c1CN(C3)C(=O)O2)C(=O)NS(=O)(=O)C1CC1` (stereo partly shown) [Compound 15am] and `CC[C@H]1C[C@@]1(NC(=O)C1C[C@@H]2CN1C(=O)[C@H](C(C)(C)C)NC(=O)OCC(F)(F)CCCCOc1cccc3c1CN(C3)C(=O)O2)C(=O)NS(=O)(=O)C1CC1` (stereo partly shown) [Compound 15ba] fall in the same range of IC50: 0.1 to 5 nM for the first, 0.1 to 5 nM for the second.

`C=CC1CC1(NC(=O)C1CC2CN1C(=O)C(C(C)(C)C)NC(=O)OCC(C)(C)CCCCCOc1cccc3c1CN(C3)C(=O)O2)C(=O)NS(=O)(=O)C1CC1` (stereo not shown) [Compound 15at] and `C=C[C@H]1C[C@@]1(NC(=O)C1C[C@@H]2CN1C(=O)[C@H](C(C)(C)C)NC(=O)OCC(C)(C)CCCCCOc1ccc3c(c1)CN(C3)C(=O)O2)C(=O)NS(=O)(=O)C1CC1` (stereo partly shown) [Compound 15bn] fall in the same range of IC50: 0.1 to 5 nM for the first, 0.1 to 5 nM for the second.

`C=C[C@H]1C[C@@]1(NC(=O)C1C[C@@H]2CN1C(=O)[C@H](C(C)(C)C)NC(=O)OCC(C)(C)CC/C=C/COc1cccc3c1CN(C3)C(=O)O2)C(=O)NS(=O)(=O)C1CC1` (stereo partly shown) [Compound 15au] and `CC[C@H]1C[C@@]1(NC(=O)C1C[C@@H]2CN1C(=O)[C@H](C(C)(C)C)NC(=O)OCC1(CC/C=C/COc3cccc4c3CN(C4)C(=O)O2)CC1)C(=O)NS(=O)(=O)C1CC1` (stereo partly shown) [Compound 15b] fall in the same range of IC50: 0.1 to 5 nM for the first, 0.1 to 5 nM for the second.

`CC[C@H]1C[C@@]1(NC(=O)C1C[C@@H]2CN1C(=O)[C@H](C(C)(C)C)NC(=O)OCC(C)(C)CCCCCOCc1cccc3c1CN(C3)C(=O)O2)C(=O)NS(=O)(=O)C1CC1` (stereo partly shown) [Compound 15av] and `CC[C@H]1C[C@@]1(NC(=O)C1C[C@@H]2CN1C(=O)[C@H](C(C)(C)C)NC(=O)OCCCCCCOCc1cccc3c1CN(C3)C(=O)O2)C(=O)NS(=O)(=O)C1CC1` (stereo partly shown) [Compound 15aw] fall in the same range of IC50: 5.1 to 50 nM for the first, 5.1 to 50 nM for the second.

`CC[C@H]1C[C@@]1(NC(=O)C1C[C@@H]2CN1C(=O)[C@H](C(C)(C)C)NC(=O)OCC(C)(C)CCCCOc1ccc(Cl)c3c1CN(C3)C(=O)O2)C(=O)NS(=O)(=O)C1CC1` (stereo partly shown) [Compound 15ax] and `CC[C@H]1C[C@@]1(NC(=O)C1C[C@@H]2CN1C(=O)[C@H](C(C)(C)C)NC(=O)OCC(C)(C)CCCCCOc1ccc3c(c1)CN(C3)C(=O)O2)C(=O)NS(=O)(=O)C1CC1` (stereo partly shown) [Compound 15bp] fall in the same range of IC50: 0.1 to 5 nM for the first, 0.1 to 5 nM for the second.

First: CC[C@H]1C[C@@]1(NC(=O)C1C[C@@H]2CN1C(=O)[C@H](C(C)(C)C)NC(=O)OCCCCCCNC(=O)c1cccc3c1CN(C3)C(=O)O2)C(=O)NS(=O)(=O)C1CC1 (stereo partly shown) [Compound 15bb]
Second: CCC1CC1(NC(=O)C1CC2CN1C(=O)C(C(C)(C)C)NC(=O)OCC(C)(C)CCCCCNC(=O)c1cccc3c1CN(C3)C(=O)O2)C(=O)NS(=O)(=O)C1CC1 (stereo not shown) [Compound 15bd]
The IC50 of the first is lower: 5.1 to 50 nM for the first, 51 to 300 nM for the second. The first is the more potent here.

`CC[C@H]1C[C@@]1(NC(=O)C1C[C@@H]2CN1C(=O)[C@H](C(C)(C)C)NC(=O)OCC(C)(C)CCCCNC(=O)c1cccc3c1CN(C3)C(=O)O2)C(=O)NS(=O)(=O)C1CC1` (stereo partly shown) [Compound 15bc] and `CC[C@H]1C[C@@]1(NC(=O)C1C[C@@H]2CN1C(=O)[C@H](C(C)(C)C)NC(=O)OCCCCCCOC(=O)c1ccc3c(c1)CN(C3)C(=O)O2)C(=O)NS(=O)(=O)C1CC1` (stereo partly shown) [Compound 15bq] fall in the same range of IC50: 51 to 300 nM for the first, 51 to 300 nM for the second.

`CC[C@H]1C[C@@]1(NC(=O)C1C[C@@H]2CN1C(=O)[C@H](C(C)(C)C)NC(=O)OCCCCCCCOc1ccc3c(c1)CN(C3)C(=O)O2)C(=O)NS(=O)(=O)C1CC1` (stereo partly shown) [Compound 15be] and `C=C[C@H]1C[C@@]1(NC(=O)C1C[C@@H]2CN1C(=O)[C@H](C(C)(C)C)NC(=O)OCCCCCCCOc1ccc3c(c1)CN(C3)C(=O)O2)C(=O)NS(=O)(=O)C1CC1` (stereo partly shown) [Compound 15bf] fall in the same range of IC50: 0.1 to 5 nM for the first, 0.1 to 5 nM for the second.

First: CC[C@H]1C[C@@]1(NC(=O)C1C[C@@H]2CN1C(=O)[C@H](C(C)(C)C)NC(=O)OCCCC/C=C/COc1ccc3c(c1)CN(C3)C(=O)O2)C(=O)NS(=O)(=O)C1CC1 (stereo partly shown) [Compound 15bg]
Second: CCC1CC1(NC(=O)C1CC2CN1C(=O)C(C(C)(C)C)NC(=O)OCCCC=CCOc1ccc3c(c1)CN(C3)C(=O)O2)C(=O)NS(=O)(=O)C1CC1 (stereo not shown) [Compound 15bk]
The IC50 of the first is lower: 0.1 to 5 nM for the first, 5.1 to 50 nM for the second.

`C=C[C@H]1C[C@@]1(NC(=O)C1C[C@@H]2CN1C(=O)[C@H](C(C)(C)C)NC(=O)OCCCC/C=C/COc1ccc3c(c1)CN(C3)C(=O)O2)C(=O)NS(=O)(=O)C1CC1` (stereo partly shown) [Compound 15bh] and `C=CC1CC1(NC(=O)C1CC2CN1C(=O)C(C(C)(C)C)NC(=O)OCCCC=CCOc1ccc3c(c1)CN(C3)C(=O)O2)C(=O)NS(=O)(=O)C1CC1` (stereo not shown) [Compound 15bj] fall in the same range of IC50: 0.1 to 5 nM for the first, 0.1 to 5 nM for the second.

`C=C[C@H]1C[C@@]1(NC(=O)C1C[C@@H]2CN1C(=O)[C@H](C(C)(C)C)NC(=O)OCC/C=C/COc1ccc3c(c1)CN(C3)C(=O)O2)C(=O)NS(=O)(=O)C1CC1` (stereo partly shown) [Compound 15bm] was tested, and the IC50 was 51 to 300 nM.
